These results are taken from PMC7125606 (Antiviral Research, 2009).

In series [1] the test system is Influenza A/H3N2 (strain X-31). In words: microbe, parasite or virus in culture. Particulars: H3N2, MDCK, in Homo sapiens, 72 h. The format is cell-based.
The subject of series [2] is Influenza A/H3N2 (strain A/HK/7/87). In words: microbe, parasite or virus in culture. It is filed as cell-based. Particulars: H3N2, MDCK, in Homo sapiens, 72 h.
The next series deals with MDCK cells. Particulars: minimal changes in cell morphology by microscopy.
A short description of the next series: in vitro. To be noted: dog.
Another series concerns influenza virus. The format is cell-based, human influenza virus. Particulars: Ratio of MCC to average EC50, MDCK cells.
For series [3], the system named is Human embryonic lung (HEL) fibroblasts.
Series [4] concerns human cervix epithelial (HeLa) cells.
For series [5], the system named is African green monkey kidney (Vero) cells.
[6] abbreviates: read-out: Antiviral EC50, Influenza A/H3N2 (strain X-31), CPE.
Where [7] appears, read: read-out: Antiviral EC50, Influenza A/H3N2 (strain X-31), MTS.
The mark [8] stands for this setting: read-out: Antiviral EC50, Influenza A/H3N2 (strain A/HK/7/87), CPE.
Where [9] appears, read: read-out: Antiviral EC50, Influenza A/H3N2 (strain A/HK/7/87), MTS.

Where two headings read alike, the source gives them in different places. A value given as a limit tells only on which side of the number the result lay.

Turning to `NC12CC3CC(CC(C3)C1)C2` [Amantadine], the EC50 in series [1] (setting [6]) worked out at 54 ± 33 µM; in series [1] (setting [7]), 45 ± 21 µM; in series [2] (setting [8]), 3.9 ± 4.1 µM; in series [2] (setting [9]), 3.2 ± 4 µM. Besides, the “Cytotoxicity MCC (minimum cytotoxic concentration)” value (“Cytotoxicity MCC” below) with MDCK cells is above 100 µM. The CC50 in the series “in vitro” was above 100 µM.
`COC(=O)[C@H]1NC(=O)[C@H]2NC(=O)[C@H](NC(=O)[C@@H]3NC(=O)[C@H]4NC(=O)[C@H](NC(=O)[C@H](N)c5ccc(O)c(c5)Oc5cc4cc(O)c5C)[C@H](O)c4ccc(cc4)Oc4cc3cc(c4O)Oc3ccc(cc3)[C@H]2O)c2ccc(O)c(c2)-c2c(O)cc(O)cc21` [Compound 2, aglycoristocetin]: the EC50 amounted to 8.4 ± 2.4 µM in series [1] (setting [6]), 10.7 ± 2.5 µM in series [1] (setting [7]), 4.3 ± 2.9 µM in series [2] (setting [8]) and 3.2 ± 1.6 µM in series [2] (setting [9]). Also, the Selectivity index in the series with influenza virus was 15. Moreover, the “Cytotoxicity MCC” value in the series with MDCK cells is 100 µM. Also, the “Cytotoxic concentration MCC, HEL” value in series [3] is at least 100 µM. Besides, in series [4], the “Cytotoxic concentration MCC, HeLa” value is at least 100 µM. In addition, the “Cytotoxic concentration MCC, Vero” value in series [5] came out at 100 µM. This compound also registered a CC50 in “in vitro” of 44 ± 10 µM.
On to `CCC(CC)O[C@@H]1C=C(C(=O)O)C[C@H](N)[C@H]1NC(C)=O` [Oseltamivir carboxylate], for which the EC50 in series [1] (setting [6]) was determined as 0.027 ± 0.013 µM; in series [1] (setting [7]), 0.064 ± 0.078 µM; in series [2] (setting [8]), 0.26 ± 0.3 µM; in series [2] (setting [9]) it was 0.23 ± 0.23 µM. Moreover, in the series on MDCK cells, the “Cytotoxicity MCC” value was above 100 µM. For the same compound, the CC50 in “in vitro” was above 100 µM.
Consider `NC(=O)c1ncn([C@@H]2O[C@H](CO)[C@@H](O)[C@H]2O)n1` [Ribavirin], for which the EC50 in series [1] (setting [6]) came to 9 ± 0.04 µM; in series [1] (setting [7]), 9.6 ± 2.2 µM; in series [2] (setting [8]) it was 8 ± 2.2 µM; in series [2] (setting [9]) it was 7.6 ± 3 µM. In addition, the “Cytotoxicity MCC” value in the series with MDCK cells is at least 100 µM.
